This assay addresses T1, Glycogen phosphorylase, muscle form (Oryctolagus cuniculus, UniProt P00489).
T1 sequence (P00489 whole entry): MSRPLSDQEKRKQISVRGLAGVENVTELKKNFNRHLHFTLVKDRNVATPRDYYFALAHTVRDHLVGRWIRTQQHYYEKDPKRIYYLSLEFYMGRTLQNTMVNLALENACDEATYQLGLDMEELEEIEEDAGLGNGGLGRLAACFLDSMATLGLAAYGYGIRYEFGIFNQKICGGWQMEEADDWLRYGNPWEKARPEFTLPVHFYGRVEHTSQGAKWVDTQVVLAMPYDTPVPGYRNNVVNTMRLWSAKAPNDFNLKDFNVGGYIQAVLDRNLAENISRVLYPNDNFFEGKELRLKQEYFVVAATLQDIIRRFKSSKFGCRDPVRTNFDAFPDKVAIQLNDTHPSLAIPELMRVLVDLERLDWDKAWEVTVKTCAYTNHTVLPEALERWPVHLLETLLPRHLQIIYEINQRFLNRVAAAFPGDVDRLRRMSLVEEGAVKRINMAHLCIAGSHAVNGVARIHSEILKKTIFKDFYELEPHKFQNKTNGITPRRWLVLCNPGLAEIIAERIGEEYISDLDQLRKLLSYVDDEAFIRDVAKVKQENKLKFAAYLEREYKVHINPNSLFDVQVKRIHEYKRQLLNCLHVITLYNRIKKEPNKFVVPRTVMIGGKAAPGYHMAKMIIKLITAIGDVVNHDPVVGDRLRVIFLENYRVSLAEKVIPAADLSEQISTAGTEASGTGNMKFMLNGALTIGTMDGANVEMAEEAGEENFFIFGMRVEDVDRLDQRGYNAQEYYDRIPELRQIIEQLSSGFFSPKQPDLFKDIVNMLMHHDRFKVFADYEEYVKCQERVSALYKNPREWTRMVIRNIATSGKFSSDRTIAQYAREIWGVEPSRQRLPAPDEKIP
Put plainly: Inhibition Assay. The settings on record: pH 7.2; 22 °C. Here is the method:
Each compound was dissolved in DMSO and diluted at different concentrations. RMGPa was added to 100 µL of buffer (50 mM Hepes pH 7.2, 100 mM KCl, 2.5 mM MgCl2, 0.5 mM glucose-1-phosphate, 1 mg/mL glycogen, and compound in 96-well microplates. Reaction was […] by the addition of 150 µL of 1 M HCl containing 10 mg/mL ammonium molybdate and 0.38 mg/mL malachite green and run for 25 min at 22 C.
Usually IC50 stands for the midpoint of a concentration-inhibition curve. The low end stands for greater potency in that assay, the high end for weaker potency in that assay. As for `CCCCCCCCCC(=O)OCc1cn(CC(=O)O[C@H]2CC[C@]3(C)[C@H]4CC=C5[C@@H]6CC(C)(C)CC[C@]6(C(=O)O)CC[C@@]5(C)[C@]4(C)CC[C@H]3C2(C)C)nn1` [3b-[2-(4-decanoyloxymethyl-1H-1,2,3-triazol-1-yl)acetoxy]olean-12-en-28-oic acid (Compound 8b)], the half-inhibitory concentration (IC50) was 25.6 µM.
`CCCCCCCCCCCC(=O)OCc1cn(CC(=O)O[C@H]2CC[C@]3(C)[C@H]4CC=C5[C@@H]6CC(C)(C)CC[C@]6(C(=O)O)CC[C@@]5(C)[C@]4(C)CC[C@H]3C2(C)C)nn1` [3b-[2-(4-dodecanoyloxymethyl-1H-1,2,3-triazol-1-yl)acetoxy]olean-12-en-28-oic acid (Compound 8c)] displayed an IC50 of 8.4 µM.
In the case of `CCCCCCCCC(=O)OCc1cn(CC(=O)O[C@H]2CC[C@]3(C)[C@H]4CC=C5[C@@H]6CC(C)(C)CC[C@]6(C(=O)O)CC[C@@]5(C)[C@]4(C)CC[C@H]3C2(C)C)nn1` [3b-[2-(4-nonanoyloxymethyl-1H-1,2,3-triazol-1-yl)acetoxy]olean-12-en-28-oic acid (Compound 8a)], the IC50 is 77.1 µM.
`CCCCCCCCCCCCCCCC(=O)OCc1cn(CC(=O)O[C@H]2CC[C@]3(C)[C@H]4CC=C5[C@@H]6CC(C)(C)CC[C@]6(C(=O)O)CC[C@@]5(C)[C@]4(C)CC[C@H]3C2(C)C)nn1` [3b-[2-(4-palmitoyloxymethyl-1H-1,2,3-triazol-1-yl)acetoxy]olean-12-en-28-oic acid (Compound 8d)] yielded an IC50 of 221 µM.
Regarding `CCCCCCCCCCCCCCCCCC(=O)OCc1cn(CC(=O)O[C@H]2CC[C@]3(C)[C@H]4CC=C5[C@@H]6CC(C)(C)CC[C@]6(C(=O)O)CC[C@@]5(C)[C@]4(C)CC[C@H]3C2(C)C)nn1` [3b-[2-(4-stearoyloxymethyl-1H-1,2,3-triazol-1-yl)acetoxy]olean-12-en-28-oic acid (Compound 8e)], the IC50 is 11.2 µM.
`COc1ccc(C(=O)OCc2cn(CC(=O)O[C@H]3CC[C@]4(C)[C@H]5CC=C6[C@@H]7CC(C)(C)CC[C@]7(C(=O)O)CC[C@@]6(C)[C@]5(C)CC[C@H]4C3(C)C)nn2)cc1` [3b-{2-[4-(4-methoxybenzoyloxy)methyl-1H-1,2,3-triazol-1-yl]acetoxy}olean-12-en-28-oic acid (Compound 8f)] registered an IC50 of 34.6 µM.
With `CCCCCCCCCC(=O)OCc1cn(CC(=O)O[C@H]2CC[C@]3(C)[C@H]4CC=C5[C@@H]6CC(C)(C)CC[C@]6(C(=O)OCc6ccccc6)CC[C@@]5(C)[C@]4(C)CC[C@H]3C2(C)C)nn1` [Benzyl 3b-[2-(4-decanoyloxymethyl-1H-1,2,3-triazol-1-yl)acetoxy]olean-12-en-28-oate (Compound 7b)], the IC50 turned out to be 144 µM.
With `CCCCCCCCC(=O)OCc1cn(CC(=O)O[C@H]2CC[C@]3(C)[C@H]4CC=C5[C@@H]6CC(C)(C)CC[C@]6(C(=O)OCc6ccccc6)CC[C@@]5(C)[C@]4(C)CC[C@H]3C2(C)C)nn1` [Benzyl 3b-[2-(4-nonanoyloxymethyl-1H-1,2,3-triazol-1-yl)acetoxy]olean-12-en-28-oate (Compound 7a)], the midpoint of inhibition, the IC50, lay at 80.1 µM.
`CC1(C)CC[C@]2(C(=O)OCc3ccccc3)CC[C@]3(C)C(=CC[C@@H]4[C@@]5(C)CC[C@H](OC(=O)Cn6cc(COC(=O)Cc7ccc8ccccc8c7)nn6)C(C)(C)[C@@H]5CC[C@]43C)[C@@H]2C1` [Benzyl 3b-{2-[4-(2-naphthalen-2-yl)acetoxymethyl-1H-1,2,3-triazol-1-yl]acetoxy}olean-12-en-28-oate (Compound 7g)] yielded an IC50 of 23.9 µM.
As for `COc1ccc(C(=O)OCc2cn(CC(=O)O[C@H]3CC[C@]4(C)[C@H]5CC=C6[C@@H]7CC(C)(C)CC[C@]7(C(=O)OCc7ccccc7)CC[C@@]6(C)[C@]5(C)CC[C@H]4C3(C)C)nn2)cc1` [Benzyl 3b-{2-[4-(4-methoxybenzoyloxy)methyl-1H-1,2,3-triazol-1-yl]acetoxy}olean-12-en-28-oate (Compound 7f)], it took 38.9 µM to reach half-maximal inhibition (IC50).
`CC1(C)CC[C@]2(C(=O)OCc3ccccc3)CC[C@]3(C)C(=CC[C@@H]4[C@@]5(C)CC[C@H](O)C(C)(C)[C@@H]5CC[C@]43C)[C@@H]2C1` [benzyl (4aS,6aS,6bR,8aR,10S,12aR,12bR,14bS)-10-hydroxy-2,2,6a,6b,9,9,12a-heptamethyl-1,3,4,5,6,7,8,8a,10,11,12,12b,13,14b-tetradecahydropicene-4a-carboxylate (Compound 4)] returned an IC50 of 461 µM.

The values are drawn from BindingDB's records for doi:10.1111/cbdd.12241 (Chengde Medical University, 2014).
